Laboratory results as given in paper PMC5218480 (PLoS ONE, 2017).

Tested on: MV-4-11 cells
Assay: Gene expression microarray analysis (Affymetrix PrimeView) and GSEA
Type: cell-based, human
Parameters: RFU PODN (11730768_x_at) / Fold change /veh PODN (11730768_x_at) / RFU LINC00158 (11744669_a_at) / Fold change /veh LINC00158 (11744669_a_at) / RFU DUSP10 (11751237_a_at) / Fold change /veh DUSP10 (11751237_a_at) / RFU ID3 (11757404_x_at) / Fold change /veh ID3 (11757404_x_at) / RFU PLEKHG5 (11737974_s_at) / Fold change /veh PLEKHG5 (11737974_s_at) / RFU LRRC4B (11730491_at) / Fold change /veh LRRC4B (11730491_at) / RFU GIMAP4 (11747438_a_at) / Fold change /veh GIMAP4 (11747438_a_at) / RFU KRT8 (11758183_x_at) / Fold change /veh KRT8 (11758183_x_at) / RFU CNN1 (11734310_a_at) / Fold change /veh CNN1 (11734310_a_at) / RFU VPS37D (11726825_at) / Fold change /veh VPS37D (11726825_at) / RFU C10orf10 (11716522_x_at) / Fold change /veh C10orf10 (11716522_x_at) / RFU KIR2DL2 /// KIR2DL4 /// KIR2DL5A /// KIR2DL5B /// KIR2DS1 /// KIR2DS2 /// KIR2DS3 /// KIR2DS4 /// KIR3DL3 /// KIR3DL3 /// KIR3DS1 (11738374_at) / Fold change /veh KIR2DL2 /// KIR2DL4 /// KIR2DL5A /// KIR2DL5B /// KIR2DS1 /// KIR2DS2 /// KIR2DS3 /// KIR2DS4 /// KIR3DL3 /// KIR3DL3 /// KIR3DS1 (11738374_at) / RFU C1QL1 (11718748_at) / Fold change /veh C1QL1 (11718748_at) / RFU TMPRSS4 (11747572_a_at) / Fold change /veh TMPRSS4 (11747572_a_at) / RFU HAMP (11756126_x_at) / Fold change /veh HAMP (11756126_x_at) / RFU RNFT2 (11725882_a_at) / Fold change /veh RNFT2 (11725882_a_at) / RFU NR4A2 (11747474_a_at) / Fold change /veh NR4A2 (11747474_a_at) / RFU ABCC12 (11746883_a_at) / Fold change /veh ABCC12 (11746883_a_at) / RFU TMEM136 (11760407_x_at) / Fold change /veh TMEM136 (11760407_x_at) / RFU CLDN22 /// WWC2 (11732394_at) / Fold change /veh CLDN22 /// WWC2 (11732394_at) / RFU HLA-DPB1 (11760878_x_at) / Fold change /veh HLA-DPB1 (11760878_x_at) / RFU SPINT1 (11716480_a_at) / Fold change /veh SPINT1 (11716480_a_at) / RFU GAP43 (11754022_s_at) / Fold change /veh GAP43 (11754022_s_at) / RFU A4GNT (11735810_at) / Fold change /veh A4GNT (11735810_at) / RFU PRB3 (11715151_x_at) / Fold change /veh PRB3 (11715151_x_at) / RFU TUBB4B (11761932_at) / Fold change /veh TUBB4B (11761932_at) / RFU CAPN14 (11732068_a_at) / Fold change /veh CAPN14 (11732068_a_at) / RFU TMCC2 (11721928_a_at) / Fold change /veh TMCC2 (11721928_a_at) / RFU IRGQ (11745062_a_at) / Fold change /veh IRGQ (11745062_a_at) / RFU FAM174B (11720279_a_at) / Fold change /veh FAM174B (11720279_a_at) / RFU TMPRSS4 (11748680_a_at) / Fold change /veh TMPRSS4 (11748680_a_at) / RFU FAM212B (11763350_a_at) / Fold change /veh FAM212B (11763350_a_at) / RFU PLEKHG5 (11743358_a_at) / Fold change /veh PLEKHG5 (11743358_a_at) / RFU ZSCAN30 (11745921_a_at) / Fold change /veh ZSCAN30 (11745921_a_at) / RFU CMKLR1 (11741424_a_at) / Fold change /veh CMKLR1 (11741424_a_at) / RFU LOC101060620 /// MAPK8IP1 (11723275_at) / Fold change /veh LOC101060620 /// MAPK8IP1 (11723275_at) / RFU SPTSSB (11747773_x_at) / Fold change /veh SPTSSB (11747773_x_at) / RFU PRSS12 (11739890_at) / Fold change /veh PRSS12 (11739890_at) / RFU BIN1 (11741810_x_at) / Fold change /veh BIN1 (11741810_x_at) / RFU WNT11 (11732464_a_at) / Fold change /veh WNT11 (11732464_a_at) / RFU C10orf10 (11716521_a_at) / Fold change /veh C10orf10 (11716521_a_at) / RFU C5orf56 (11738089_at) / Fold change /veh C5orf56 (11738089_at) / RFU CYB561 (11721691_x_at) / Fold change /veh CYB561 (11721691_x_at) / RFU ANKRD19P (11752326_a_at) / Fold change /veh ANKRD19P (11752326_a_at) / RFU OR2T12 /// OR2T33 /// OR2T8 (11738714_s_at) / Fold change /veh OR2T12 /// OR2T33 /// OR2T8 (11738714_s_at) / RFU VCAN (11748164_a_at) / Fold change /veh VCAN (11748164_a_at) / RFU JSRP1 (11732532_at) / Fold change /veh JSRP1 (11732532_at) / RFU KRTAP10-11 (11738290_x_at) / Fold change /veh KRTAP10-11 (11738290_x_at) / RFU MYO3A (11730013_a_at) / Fold change /veh MYO3A (11730013_a_at) / RFU EBF3 (11725865_a_at) / Fold change /veh EBF3 (11725865_a_at) / RFU CAMK2N1 (11719241_x_at) / Fold change /veh CAMK2N1 (11719241_x_at) / RFU C5orf56 (11738088_a_at) / Fold change /veh C5orf56 (11738088_a_at) / RFU OLFML3 (11715873_a_at) / Fold change /veh OLFML3 (11715873_a_at) / RFU LOC100653217 /// NTM (11731650_a_at) / Fold change /veh LOC100653217 /// NTM (11731650_a_at) / RFU MAPK11 (11762145_a_at) / Fold change /veh MAPK11 (11762145_a_at) / RFU FIZ1 (11724087_x_at) / Fold change /veh FIZ1 (11724087_x_at) / RFU OASL (11726364_x_at) / Fold change /veh OASL (11726364_x_at) / RFU SOX15 (11748057_x_at) / Fold change /veh SOX15 (11748057_x_at) / RFU CD79A (11719716_a_at) / Fold change /veh CD79A (11719716_a_at) / RFU HIST1H1D (11736915_at) / Fold change /veh HIST1H1D (11736915_at) / RFU CASKIN2 (11723855_a_at) / Fold change /veh CASKIN2 (11723855_a_at) / RFU LOC730098 (11760151_x_at) / Fold change /veh LOC730098 (11760151_x_at) / RFU OR4N2 (11742367_at) / Fold change /veh OR4N2 (11742367_at) / RFU PRRT2 (11749266_a_at) / Fold change /veh PRRT2 (11749266_a_at) / RFU SNX32 (11753110_a_at) / Fold change /veh SNX32 (11753110_a_at) / RFU CDHR5 (11726645_a_at) / Fold change /veh CDHR5 (11726645_a_at) / RFU RCAN1 (11760418_a_at) / Fold change /veh RCAN1 (11760418_a_at) / RFU FAM167A (11723789_a_at) / Fold change /veh FAM167A (11723789_a_at) / RFU FAM26E (11764081_at) / Fold change /veh FAM26E (11764081_at) / RFU ISYNA1 (11749810_s_at) / Fold change /veh ISYNA1 (11749810_s_at) / RFU ACY1 (11761880_at) / Fold change /veh ACY1 (11761880_at) / RFU 11764098_at / Fold change /veh 11764098_at / RFU SAMD14 (11745864_x_at) / Fold change /veh SAMD14 (11745864_x_at) / RFU NPB (11741838_a_at) / Fold change /veh NPB (11741838_a_at) / RFU TMPRSS6 (11731388_a_at) / Fold change /veh TMPRSS6 (11731388_a_at) / RFU KRTAP10-2 (11738614_at) / Fold change /veh KRTAP10-2 (11738614_at) / RFU ARHGAP8 /// PRR5-ARHGAP8 (11727945_x_at) / Fold change /veh ARHGAP8 /// PRR5-ARHGAP8 (11727945_x_at) / RFU KRTAP5-7 /// NADSYN1 (11734609_at) / Fold change /veh KRTAP5-7 /// NADSYN1 (11734609_at) / RFU RASL12 (11751679_a_at) / Fold change /veh RASL12 (11751679_a_at) / RFU CDKN2B (11736163_a_at) / Fold change /veh CDKN2B (11736163_a_at) / RFU PRF1 (11729649_at) / Fold change /veh PRF1 (11729649_at) / RFU, ZNF638 /// ZNF638-IT1 / Fold change vs veh, ZNF638 /// ZNF638-IT1 / RFU, PANK3 / Fold change vs veh, PANK3 / RFU, SH3YL1 / Fold change vs veh, SH3YL1 / RFU, ZEB2 / Fold change vs veh, ZEB2 / RFU, NRIP1 / Fold change vs veh, NRIP1 / RFU, PTTG1IP / Fold change vs veh, PTTG1IP / RFU, CAPN2 / Fold change vs veh, CAPN2 / RFU, MED14 / Fold change vs veh, MED14 / RFU, SNORA58 / Fold change vs veh, SNORA58 / RFU, C1orf63 / Fold change vs veh, C1orf63 / RFU, LRRFIP1 / Fold change vs veh, LRRFIP1 / RFU, NDUFAF7 / Fold change vs veh, NDUFAF7 / RFU, SLC12A2 / Fold change vs veh, SLC12A2 / RFU, IBTK / Fold change vs veh, IBTK / RFU, ESF1 / Fold change vs veh, ESF1 / Fold change vs veh, TMEM50B / RFU, TAOK1 / Fold change vs veh, TAOK1 / RFU, ACBD3 / Fold change vs veh, ACBD3 / RFU, TMA16 / Fold change vs veh, TMA16 / RFU, RWDD3 / Fold change vs veh, RWDD3 / RFU, BCAT1 / Fold change vs veh, BCAT1 / RFU, EDEM3 / Fold change vs veh, EDEM3 / RFU, TMEM33 / Fold change vs veh, TMEM33 / RFU, WDR75 / Fold change vs veh, WDR75 / RFU, AHCTF1 / Fold change vs veh, AHCTF1 / RFU, TFRC / Fold change vs veh, TFRC / RFU, ZDHHC17 / Fold change vs veh, ZDHHC17 / RFU, NOM1 / Fold change vs veh, NOM1 / RFU, ARL8B / Fold change vs veh, ARL8B / RFU, ZBTB11 / Fold change vs veh, ZBTB11 / RFU, TAMM41 / Fold change vs veh, TAMM41 / RFU, KIAA1704 /// LOC100996395 / Fold change vs veh, KIAA1704 /// LOC100996395 / RFU, ING1 / Fold change vs veh, ING1 / RFU, TRMT61B / Fold change vs veh, TRMT61B / RFU, FUBP3 / Fold change vs veh, FUBP3 / RFU, TP53 / Fold change vs veh, TP53 / RFU, TNKS2 / Fold change vs veh, TNKS2 / RFU, ZFP14 / Fold change vs veh, ZFP14 / RFU, ACTR2 / Fold change vs veh, ACTR2 / RFU, PPP3R1 / Fold change vs veh, PPP3R1 / RFU, PIK3R1 / Fold change vs veh, PIK3R1 / RFU, HNRNPA1 / Fold change vs veh, HNRNPA1 / RFU, RNF170 / Fold change vs veh, RNF170 / RFU, ZNF28 / Fold change vs veh, ZNF28 / RFU, RNGTT / Fold change vs veh, RNGTT / RFU, OGT / Fold change vs veh, OGT / RFU, BRD1 / Fold change vs veh, BRD1 / RFU, MARS / Fold change vs veh, MARS / RFU, ZNF655 / Fold change vs veh, ZNF655 / RFU, FAHD1 / Fold change vs veh, FAHD1 / RFU, BDP1 / Fold change vs veh, BDP1 / RFU, LRRCC1 / Fold change vs veh, LRRCC1 / RFU, ARID1A / Fold change vs veh, ARID1A / RFU, ZNF146 / Fold change vs veh, ZNF146 / RFU, ZNF330 / Fold change vs veh, ZNF330 / RFU, GPN3 / Fold change vs veh, GPN3 / RFU, C9orf123 / Fold change vs veh, C9orf123 / RFU, N4BP2L2 / Fold change vs veh, N4BP2L2 / RFU, ARFIP1 / Fold change vs veh, ARFIP1 / RFU, FAM179B / Fold change vs veh, FAM179B / RFU, BCL10 / Fold change vs veh, BCL10 / RFU, UHRF1BP1L / Fold change vs veh, UHRF1BP1L / RFU, BET1 / Fold change vs veh, BET1 / RFU, CNOT2 / Fold change vs veh, CNOT2 / RFU, ZNF268 / Fold change vs veh, ZNF268 / Fold change vs veh, ZNF507 / RFU, DGCR2 / Fold change vs veh, DGCR2 / RFU, WDSUB1 / Fold change vs veh, WDSUB1 / Fold change vs veh, HSP90B1 /// MIR3652 / RFU, ADSS / Fold change vs veh, ADSS / RFU, GK / Fold change vs veh, GK / RFU, ZNF148 / Fold change vs veh, ZNF148 / RFU, TAF9 / Fold change vs veh, TAF9 / RFU, SLC1A5 / Fold change vs veh, SLC1A5 / RFU, SLMO2 / Fold change vs veh, SLMO2 / RFU, ABCC4 / Fold change vs veh, ABCC4 / RFU, LOC101060439 /// RAP1B / Fold change vs veh, LOC101060439 /// RAP1B / RFU, RFX7 / Fold change vs veh, RFX7 / RFU, GTPBP10 / Fold change vs veh, GTPBP10 / RFU, CNEP1R1 / Fold change vs veh, CNEP1R1 / RFU, BIVM-ERCC5 /// ERCC5 / Fold change vs veh, BIVM-ERCC5 /// ERCC5 / RFU, ILF3 / Fold change vs veh, ILF3 / RFU 11762660_at / Fold change /veh 11762660_at / RFU VCAN (11757783_s_at) / Fold change /veh VCAN (11757783_s_at) / RFU DDX43 (11728927_at) / Fold change /veh DDX43 (11728927_at) / RFU KRT8 (11758188_x_at) / Fold change /veh KRT8 (11758188_x_at) / RFU NKD1 (11759106_at) / Fold change /veh NKD1 (11759106_at) / RFU SRD5A1 (11742802_a_at) / Fold change /veh SRD5A1 (11742802_a_at) / RFU TPSAB1 /// TPSB2 (11721975_s_at) / Fold change /veh TPSAB1 /// TPSB2 (11721975_s_at) / RFU GSTM3 (11746129_a_at) / Fold change /veh GSTM3 (11746129_a_at) / RFU IL23R (11737362_x_at) / Fold change /veh IL23R (11737362_x_at) / RFU TMEM51 (11727254_a_at) / Fold change /veh TMEM51 (11727254_a_at) / RFU PIWIL2 (11732686_x_at) / Fold change /veh PIWIL2 (11732686_x_at) / RFU ORM1 (11744905_x_at) / Fold change /veh ORM1 (11744905_x_at) / RFU CCDC152 (11743942_at) / Fold change /veh CCDC152 (11743942_at) / RFU ECM1 (11717891_a_at) / Fold change /veh ECM1 (11717891_a_at) / RFU IL23R (11748794_a_at) / Fold change /veh IL23R (11748794_a_at) / RFU TNFAIP8L3 (11732012_x_at) / Fold change /veh TNFAIP8L3 (11732012_x_at) / RFU MBOAT4 (11741988_at) / Fold change /veh MBOAT4 (11741988_at) / RFU 11764193_at / Fold change /veh 11764193_at / RFU TMEM53 (11763286_at) / Fold change /veh TMEM53 (11763286_at) / RFU MAGEB2 (11727129_at) / Fold change /veh MAGEB2 (11727129_at) / RFU TMEM200A (11744735_a_at) / Fold change /veh TMEM200A (11744735_a_at) / RFU CCDC152 (11751479_a_at) / Fold change /veh CCDC152 (11751479_a_at) / RFU FAM211A (11726209_a_at) / Fold change /veh FAM211A (11726209_a_at) / RFU RGS16 (11746705_a_at) / Fold change /veh RGS16 (11746705_a_at) / RFU VCAN (11755009_s_at) / Fold change /veh VCAN (11755009_s_at) / RFU RHOB (11743442_s_at) / Fold change /veh RHOB (11743442_s_at) / RFU RGS16 (11720943_a_at) / Fold change /veh RGS16 (11720943_a_at) / RFU RGS16 (11720944_at) / Fold change /veh RGS16 (11720944_at) / RFU, VPS4B / Fold change vs veh, VPS4B / RFU, CREB1 / Fold change vs veh, CREB1 / RFU, DNAJC13 / Fold change vs veh, DNAJC13 / RFU, GNAQ / Fold change vs veh, GNAQ / RFU, CDK5R1 / Fold change vs veh, CDK5R1 / RFU, ZRANB3 / Fold change vs veh, ZRANB3 / RFU, CUL4A / Fold change vs veh, CUL4A / RFU, CCNY / Fold change vs veh, CCNY / RFU, UFL1 / Fold change vs veh, UFL1 / RFU, COG3 / Fold change vs veh, COG3 / RFU, DIAPH2 / Fold change vs veh, DIAPH2 / RFU, SKA2 / Fold change vs veh, SKA2 / RFU, AFF3 / Fold change vs veh, AFF3 / RFU, LMF1 / Fold change vs veh, LMF1 / RFU, IPO11 / Fold change vs veh, IPO11 / RFU, DFFB / Fold change vs veh, DFFB / RFU, FOXP1 / Fold change vs veh, FOXP1 / RFU, CARD8 / Fold change vs veh, CARD8 / RFU, STRN3 / Fold change vs veh, STRN3 / RFU, ADK / Fold change vs veh, ADK / RFU, RASSF2 / Fold change vs veh, RASSF2 / RFU, WIPF1 / Fold change vs veh, WIPF1 / RFU, LARP1B / Fold change vs veh, LARP1B / RFU, RASA1 / Fold change vs veh, RASA1 / RFU, RB1 / Fold change vs veh, RB1 / RFU, PPFIA1 / Fold change vs veh, PPFIA1 / RFU, MAT2A / Fold change vs veh, MAT2A / RFU, CCT5 / Fold change vs veh, CCT5 / RFU, WDR92 / Fold change vs veh, WDR92 / RFU, CUX1 / Fold change vs veh, CUX1 / RFU, TTC7A / Fold change vs veh, TTC7A / RFU, TMEM135 / Fold change vs veh, TMEM135 / RFU, DEPTOR / Fold change vs veh, DEPTOR / RFU, CPM / Fold change vs veh, CPM / RFU, DNAJB6 / Fold change vs veh, DNAJB6 / RFU, CACNA2D3 / Fold change vs veh, CACNA2D3 / RFU, DTX4 / Fold change vs veh, DTX4 / RFU, TFCP2 / Fold change vs veh, TFCP2 / RFU, GMCL1 /// GMCL1P1 / Fold change vs veh, GMCL1 /// GMCL1P1 / RFU, AEBP2 / Fold change vs veh, AEBP2 / RFU, SNHG1 /// SNORD22 /// SNORD25 /// SNORD26 /// SNORD27 /// SNORD28 /// SNORD29 /// SNORD31 / Fold change vs veh, SNHG1 /// SNORD22 /// SNORD25 /// SNORD26 /// SNORD27 /// SNORD28 /// SNORD29 /// SNORD31 / Fold change (Aza/veh), C12orf56 (ProbeSet 11735607_a_at) / Fold change (ACY-1035/veh), C12orf56 (ProbeSet 11735607_a_at) / Fold change (Aza/veh), FGFR1OP (ProbeSet 11751329_s_at) / Fold change (ACY-1035/veh), FGFR1OP (ProbeSet 11751329_s_at) / Fold change (Aza/veh), VPS36 (ProbeSet 11739960_a_at) / Fold change (ACY-1035/veh), VPS36 (ProbeSet 11739960_a_at) / RFU SYPL1 (11715823_x_at) / Fold change /veh SYPL1 (11715823_x_at) / RFU IGFBP7 (11715501_s_at) / Fold change /veh IGFBP7 (11715501_s_at) / RFU REEP3 (11722064_at) / Fold change /veh REEP3 (11722064_at) / RFU IGLL1 (11728026_x_at) / Fold change /veh IGLL1 (11728026_x_at): dose or concentration left out as unconfirmed
Settings: ProbeSet 11743567_s_at; LIST B

Nc1ncn([C@@H]2O[C@H](CO)[C@@H](O)[C@H]2O)c(=O)n1 [azacitidine]
Fold change vs veh, ACBD3: 1.04
